In patent US12258424B2, “Polypeptides and compositions comprising the same” (priority 2020, dated 2025):
Positions of bridges follow the written chain, without caps; N, C: chain ends. Residues, ends and D or L forms follow the SMILES beside them.

What was measured:
IL-6 = details: cancer patients, Herbst et al. 2014; cited from earlier work
[1] = Proteolytic stability in 50% human serum (LC-MS); assay type: in vitro ADME
Protocol: Half-life in 50% human serum. Proteolytic stability of the peptides was investigated using LC-MS. Solutions of the anti-PD-L1 peptides were incubated with 50% human serum at […], aliquots were taken at specific time points for processing and subsequent LC-MS analysis.

[2] = Cell viability of DU145 cells (CellTiter-Glo); assay type: cell-based; details: human, read-out: % cell viability after incubation with 50 μM peptide
Protocol: % cell viability after incubation with 50 μM peptide. White 96-well plates with clear bottom (Corning, RFE 3610) were seeded with DU145 cells at a density of 1×10^4 cells/well and incubated in a humidified atmosphere at 37° C. with a supply of 5% CO2. After 12 h, various peptide concentrations were added to the cells and incubated for 48 h. CellTiter-Glo kit (Promega, WI) was employed in the cell viability analysis by following the manufacturer's instructions.

PD1/PD-L1 = PD1/PD-L1 (Homo sapiens, UniProt Q9NZQ7); assay: IC50 and blocking efficiency against PD1/PD-L1 (Table 5); assay type: binding
Protocol: (§1) Blocking efficiency at 10 μM/IC50 against human and mouse PD1/PD-L1 (ELISA). […] 100 ng of recombinant human PD-L1 protein was coated in 96-well plates at 4° C. for 16 h with shaking over an orbital shaker. Unbound protein was removed by washing twice with PBS (pH 7.2-7.4), 2% BSA was added for 1.5 h at 37° C. to block the plate. Specific concentrations of the peptides were dispensed into the appropriate wells and incubated for 2 h at 37° C. […] This was followed by the addition of streptavidin-HRP and chromogenic substrate (R & D systems). The color reaction was terminated with 2N H2SO4, absorbance was recorded at OD450 and referenced to OD540.

hPD-L1 [3] = biological target: T1, hPD-L1 (Homo sapiens, UniProt Q9NZQ7); assay: PD-1/PD-L1 inhibitor screening ELISA, human proteins; assay type: binding; set-up: purchased Acro Biosystems EP-101
Protocol: as §1

hPD-L1 [4] = biological target: T1, hPD-L1; assay: Competitive SPR blocking of PD-L1 binding to immobilized PD-1; set-up: purchased Acro Biosystems EP-101
Protocol: % Blocking efficiency at 10 μM (Competitive SPR)/IC50 (competitive SPR) hPD-L1. BI-4500A SPR and a CM-5 sensor chip pre-functionalized with streptavidin (Biosensing Instrument Inc., Tempe, Ariz.) were employed for the SPR analysis. […] Different concentrations of each peptide were incubated with human PD-L1 (AcroBiosystems, cat #EP-101) prior to injection. Human PD-L1 alone was also injected to serve as a control. […] Data was analyzed with SPR Data Analysis Version 3.8.4 (Biosensing Instrument Inc., Tempe, AZ).

mPD-L1 = mPD-L1 (Mus musculus, UniProt Q9EP73); assay: PD-1/PD-L1 blocking ELISA, mouse proteins; assay type: binding; set-up: purchased Acro Biosystems PD1-M5220 (PD-L1)
Protocol: as §1

T1 sequence (Q9NZQ7 19-238 limits assumed): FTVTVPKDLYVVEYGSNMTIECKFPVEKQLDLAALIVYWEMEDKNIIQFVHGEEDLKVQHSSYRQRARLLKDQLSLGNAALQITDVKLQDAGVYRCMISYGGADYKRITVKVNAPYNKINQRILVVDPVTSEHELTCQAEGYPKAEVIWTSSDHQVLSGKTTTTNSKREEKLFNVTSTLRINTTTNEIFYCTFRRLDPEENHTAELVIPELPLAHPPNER
PD1/PD-L1, sequence (Q9NZQ7 19-238 limits assumed): as above
mPD-L1, sequence (Q9EP73 19-238 limits assumed): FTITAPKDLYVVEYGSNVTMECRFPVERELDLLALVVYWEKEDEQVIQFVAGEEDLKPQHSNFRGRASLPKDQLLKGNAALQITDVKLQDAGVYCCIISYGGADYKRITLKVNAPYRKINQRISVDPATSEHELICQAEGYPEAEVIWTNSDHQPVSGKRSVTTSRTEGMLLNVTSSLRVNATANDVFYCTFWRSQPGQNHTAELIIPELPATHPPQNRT

| Molecule | Expression of IL-6 in the blood (IL-6) | half-life [1] | viability at 48 h, 50 µM [2] | % Blocking efficiency at 10 μM (PD1/PD-L1) | % Blocking efficiency at 10 μM (ELISA) hPD-L1 (hPD-L1 [3]) | % Blocking efficiency at 10 μM (Competitive SPR) hPD-L1 (hPD-L1 [4]) | % Blocking efficiency at 10 μM (ELISA) mPD-L1 (mPD-L1) |
| --- | --- | --- | --- | --- | --- | --- | --- |
| MPDL3280A: anti-PD-L1 antibody MPDL3280A (Herbst et al. 2014) | reduced |  |  |  |  |  |  |
| CC(C)C[C@H](NC(=O)[C@H](CC(N)=O)NC(=O)[C@H](Cc1c[nH]c2ccccc12)NC(=O)[C@@H]1CSSC[C@H](N)C(=O)N[C@@H](Cc2c[nH]cn2)C(=O)N[C@@H](CCCNC(=N)N)C(=O)N[C@@H](CO)C(=O)N[C@@H](Cc2ccc(O)cc2)C(=O)N[C@@H](Cc2ccc(O)cc2)C(=O)N1)C(=O)N[C@@H](CC(N)=O)C(=O)N[C@H](C(=O)O)[C@@H](C)O [CLP2C21] (H-CHRSYYCWNLNT-OH; disulfide 1-7; N-terminus and C-terminus assumed) |  | 70.8 min | ~100% | 78% | 85.9% | 99.4% | 82.6% |
| CC(C)C[C@@H]1NC(=O)[C@H](CC(N)=O)NC(=O)[C@H](Cc2c[nH]c3ccccc23)NC(=O)[C@H]([C@@H](C)O)NC(=O)[C@H](Cc2ccc(O)cc2)NC(=O)[C@H](Cc2ccc(O)cc2)NC(=O)[C@H](CO)NC(=O)[C@H](CCCNC(=N)N)NC(=O)[C@H](Cc2c[nH]cn2)NC(=O)[C@@H](N)CSSC[C@@H](C(=O)O)NC(=O)[C@H](CC(N)=O)NC1=O [CLP2C14] (H-CHRSYYTWNLNC-OH; disulfide 1-12; N-terminus and C-terminus assumed) |  | 38.1 min | ~100% | 75% | 75.0% | 86.8% | 89.3% |
